Laboratory results as given in patent publication US20240208957A1, “TRIAZINE DERIVATIVE AS REVERSIBLE AND IRREVERSIBLE COVALENT INHIBITORS OF PI3K” (UNIVERSITÄT BASEL, priority 2021, published 2024).
Read-outs that look alike come from different tables or passages of the source.

Key:
[1] = Intrinsic reactivity of the inhibitors with βME measured with HPLC; assay type: physicochemical; details: 1 mM inhibitor + 600 mM βME, n = 3, mean
Text: E˜I→EI • ii) off-target reactions with ubiquitous sulfhydryls (S) and other nucleophils present in physiologic environments such as cells and body fluids are driven by the intrinsic reactivity of the warhead that is defined by Kchem driving the conversion of S and I to form the sulfhydryl-adduct (SI) [table]

p110α (PI3Kα) = p110α (PI3Kα) (Homo sapiens, UniProt P42336); experiment: LanthaScreen determination of kinetic constants (kinact, Ki) for p110α; assay type: binding; details: for Ki: dissociation constant of the first reversible binding, mean of 3; for kinact: read-out: kinact PI3Kα;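 on all read-outs here: covalent inhibition constants for p110α come from LanthaScreen data, fitted globally by numerical integration in KinTek Global Kinetic Explorer software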
Experimental: Apparent dissociation constants of compounds [Ki(app)] for p110α were determined by LanthaScreen Technology (Life Technologies), as described in Ref.^21.
Maximum potential rate of covalent bond formation (Kinact) and dissociation constant of the first reversible binding (Ki) of compounds for p110α were determined by LanthaScreen Technology (Life Technologies). The calculation of kinetic parameters was carried out through global fitting for numerical integration by using KinTek Global Kinetic Explorer modelling software^22-27.

[2] = test system: pSer473 of PKB/Akt in SKOV3 cells; experiment: In-Cell Western cellular PI3K signaling, pSer473 of PKB/Akt in SKOV3 cells; assay type: cell-based; details: Homo sapiens
Experimental: Protein phosphorylation was detected as follows: pSer473 of PKB/Akt with rabbit polyclonal antibody from Cell Signaling Technology (CST) (#4058) by In-Cell Western assays, where 1.2×10^4 SKOV3 cells/well in 96-well plates were plated (Cell Carrier, PerkinElmer) for 24 hours (37° C., 5% CO2), as described in Ref.^21.

[3] = mean of 3 independent measurements, global fitting with KinTek
[4] = SK-OV-3, SKOV3 cells, mean of 2 or 3 independent measurements, read-out: IC50 pPKB (S473) SKOV3

Sequence of p110α (PI3Kα) (P42336 whole entry): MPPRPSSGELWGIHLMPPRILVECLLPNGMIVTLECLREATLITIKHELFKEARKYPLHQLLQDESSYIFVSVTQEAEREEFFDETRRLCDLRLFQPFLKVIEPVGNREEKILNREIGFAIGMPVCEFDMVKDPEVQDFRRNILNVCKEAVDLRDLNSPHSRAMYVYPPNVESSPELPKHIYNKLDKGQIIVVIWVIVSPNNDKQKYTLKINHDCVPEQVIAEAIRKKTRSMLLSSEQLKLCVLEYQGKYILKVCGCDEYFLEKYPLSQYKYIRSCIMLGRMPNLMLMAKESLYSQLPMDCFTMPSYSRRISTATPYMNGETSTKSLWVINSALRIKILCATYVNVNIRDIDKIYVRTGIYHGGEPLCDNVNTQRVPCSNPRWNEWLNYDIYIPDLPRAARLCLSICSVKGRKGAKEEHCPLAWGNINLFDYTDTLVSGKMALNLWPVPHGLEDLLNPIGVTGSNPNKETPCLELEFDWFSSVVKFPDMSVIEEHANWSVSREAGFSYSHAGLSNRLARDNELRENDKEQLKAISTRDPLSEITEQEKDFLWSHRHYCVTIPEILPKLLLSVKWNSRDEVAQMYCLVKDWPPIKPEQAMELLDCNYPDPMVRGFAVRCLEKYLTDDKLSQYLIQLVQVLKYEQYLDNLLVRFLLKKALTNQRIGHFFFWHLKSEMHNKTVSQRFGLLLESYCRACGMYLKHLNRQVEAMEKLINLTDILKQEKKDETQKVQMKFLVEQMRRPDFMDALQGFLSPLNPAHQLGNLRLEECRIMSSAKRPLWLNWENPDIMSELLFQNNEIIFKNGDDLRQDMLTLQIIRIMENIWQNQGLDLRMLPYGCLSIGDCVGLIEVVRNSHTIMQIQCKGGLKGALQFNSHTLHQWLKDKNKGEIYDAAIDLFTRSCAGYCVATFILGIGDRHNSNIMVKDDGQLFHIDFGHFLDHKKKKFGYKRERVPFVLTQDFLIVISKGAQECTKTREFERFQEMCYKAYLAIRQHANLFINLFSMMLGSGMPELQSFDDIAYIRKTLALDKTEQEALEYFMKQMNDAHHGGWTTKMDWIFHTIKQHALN
Sequence of p110α (PI3Kα) (P27986 whole entry partner): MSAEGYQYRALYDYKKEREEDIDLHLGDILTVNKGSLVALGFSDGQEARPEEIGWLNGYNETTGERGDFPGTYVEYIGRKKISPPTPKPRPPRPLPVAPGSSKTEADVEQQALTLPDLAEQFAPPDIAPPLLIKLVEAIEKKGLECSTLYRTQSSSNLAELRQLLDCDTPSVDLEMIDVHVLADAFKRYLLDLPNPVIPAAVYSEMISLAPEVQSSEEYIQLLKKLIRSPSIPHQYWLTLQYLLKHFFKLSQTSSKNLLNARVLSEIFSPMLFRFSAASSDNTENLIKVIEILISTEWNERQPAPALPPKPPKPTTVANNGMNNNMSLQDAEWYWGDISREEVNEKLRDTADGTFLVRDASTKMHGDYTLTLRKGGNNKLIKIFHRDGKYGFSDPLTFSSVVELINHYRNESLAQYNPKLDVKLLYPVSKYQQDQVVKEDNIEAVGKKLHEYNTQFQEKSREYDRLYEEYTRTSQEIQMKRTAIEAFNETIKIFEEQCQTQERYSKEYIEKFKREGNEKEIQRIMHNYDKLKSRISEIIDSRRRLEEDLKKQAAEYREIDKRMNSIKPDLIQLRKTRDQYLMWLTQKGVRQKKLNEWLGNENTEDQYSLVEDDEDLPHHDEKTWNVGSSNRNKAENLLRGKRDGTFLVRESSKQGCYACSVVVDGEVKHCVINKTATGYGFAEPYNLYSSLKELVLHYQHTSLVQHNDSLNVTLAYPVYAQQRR

| Structure (SMILES) | kchem [1] [M⁻¹ s⁻¹] | kinact/KI (p110α (PI3Kα); PI3Kα, read-out: kinact/Ki) [M⁻¹ s⁻¹] | Ki (p110α (PI3Kα)) [nM] | kinact (p110α (PI3Kα); [3]) [s⁻¹] | IC50 [2, 4] [nM] | kinact/KI (p110α (PI3Kα)) [M⁻¹ s⁻¹] | kinact (p110α (PI3Kα)) [s⁻¹] | IC50 ([2]; SK-OV-3, read-out: IC50 pPKB (S473) SKOV3) [nM] |
| --- | --- | --- | --- | --- | --- | --- | --- | --- |
| C=CC(=O)N1CCC[C@H](C(=O)N(C)CC(=O)N2CCN(c3nc(-c4cnc(N)nc4C(F)F)nc(N4CCOCC4)n3)CC2)C1 [Compound 17, (S)-1-acryloyl-N-(2-(4-(4-(2-amino-4-(difluoromethyl)pyrimidin-5-yl)-6-morpholino-1,3,5-triazin-2-yl)piperazin-1-yl)-2-oxoethyl)-N-methylpiperidine-3-carboxamide] | 0.00068 | 32700 | 7.66 | 0.000251 | 85.7 |  |  |  |
| C=CC(=O)N1CC[C@@H](C(=O)N(C)CC(=O)N2CCN(c3nc(-c4cnc(N)nc4C(F)F)nc(N4CCOCC4)n3)CC2)C1 [Compound 27, (R)-1-acryloyl-N-(2-(4-(4-(2-amino-4-(difluoromethyl)pyrimidin-5-yl)-6-morpholino-1,3,5-triazin-2-yl)piperazin-1-yl)-2-oxoethyl)-N-methylpyrrolidine-3-carboxamide] | 0.00049 | 531000 | 6.07 | 0.0032 | 64.1 |  |  |  |
| C=CC(=O)N1CCCC[C@@H]1C(=O)NCC(=O)N1CCN(c2nc(-c3cnc(N)nc3C(F)F)nc(N3CCOCC3)n2)CC1 [Compound 21, (R)-1-acryloyl-N-(2-(4-(4-(2-amino-4-(difluoromethyl)pyrimidin-5-yl)-6-morpholino-1,3,5-triazin-2-yl)piperazin-1-yl)-2-oxoethyl)piperidine-2-carboxamide] | 0.00469 | 227000 | 3.85 | 0.000875 | 89.8 |  |  |  |
| C=CC(=O)N1CCC[C@@H]1C(=O)N(C)CC(=O)N1CCN(c2nc(-c3cnc(N)nc3C(F)F)nc(N3CCOCC3)n2)CC1 [Compound 31, (R)-1-acryloyl-N-(2-(4-(4-(2-amino-4-(difluoromethyl)pyrimidin-5-yl)-6-morpholino-1,3,5-triazin-2-yl)piperazin-1-yl)-2-oxoethyl)-N-methylpyrrolidine-2-carboxamide] | 0.00052 |  |  |  | 447 |  |  |  |
| C=CC(=O)N1CCC[C@H]1C(=O)N(C)CC(=O)N1CCN(c2nc(-c3cnc(N)nc3C(F)F)nc(N3CCOCC3)n2)CC1 [Compound 30, (S)-1-acryloyl-N-(2-(4-(4-(2-amino-4-(difluoromethyl)pyrimidin-5-yl)-6-morpholino-1,3,5-triazin-2-yl)piperazin-1-yl)-2-oxoethyl)-N-methylpyrrolidine-2-carboxamide] | 0.00058 |  |  |  |  |  |  |  |
| C=CC(=O)N1CCCC[C@H]1C(=O)NCC(=O)N1CCN(c2nc(-c3cnc(N)nc3C(F)F)nc(N3CCOCC3)n2)CC1 [Compound 20, (S)-1-acryloyl-N-(2-(4-(4-(2-amino-4-(difluoromethyl)pyrimidin-5-yl)-6-morpholino-1,3,5-triazin-2-yl)piperazin-1-yl)-2-oxoethyl)piperidine-2-carboxamide] | 0.00444 | 212000 | 3.06 | 0.00065 | 59.3 |  |  |  |
| C=CC(=O)N1CCC[C@H](C(=O)NCC(=O)N2CCN(c3nc(-c4cnc(N)nc4C(F)F)nc(N4CCOCC4)n3)CC2)C1 [Compound 15, (S)-1-acryloyl-N-(2-(4-(4-(2-amino-4-(difluoromethyl)pyrimidin-5-yl)-6-morpholino-1,3,5-triazin-2-yl)piperazin-1-yl)-2-oxoethyl)piperidine-3-carboxamide] | 0.00073 | 151000 | 3.63 | 0.000547 | 133 |  |  |  |
| C=CC(=O)N1CCC[C@@H](C(=O)N(C)CC(=O)N2CCN(c3nc(-c4cnc(N)nc4C(F)F)nc(N4CCOCC4)n3)CC2)C1 [Compound 18, (R)-1-acryloyl-N-(2-(4-(4-(2-amino-4-(difluoromethyl)pyrimidin-5-yl)-6-morpholino-1,3,5-triazin-2-yl)piperazin-1-yl)-2-oxoethyl)-N-methylpiperidine-3-carboxamide] | 0.000704 |  | 6.08 |  |  | 711000 | 0.00433 | 15.3 |
| C=CC(=O)N1CCC[C@@H]1C(=O)NCC(=O)N1CCN(c2nc(-c3cnc(N)nc3C(F)F)nc(N3CCOCC3)n2)CC1 [Compound 29, (R)-1-acryloyl-N-(2-(4-(4-(2-amino-4-(difluoromethyl)pyrimidin-5-yl)-6-morpholino-1,3,5-triazin-2-yl)piperazin-1-yl)-2-oxoethyl)pyrrolidine-2-carboxamide] | 0.0079 | 40700 | 6.74 | 0.000275 | 204 |  |  |  |
| C=CC(=O)N1CCC(COCC(=O)N2CCN(c3nc(-c4cnc(N)nc4C(F)F)nc(N4CCOCC4)n3)CC2)CC1 [Compound 46, 1-(4-((2-(4-(4-(2-amino-4-(difluoromethyl)pyrimidin-5-yl)-6-morpholino-1,3,5-triazin-2-yl)piperazin-1-yl)-2-oxoethoxy)methyl)piperidin-1-yl)prop-2-en-1-one] | 0.00029 | 239000 | 4.29 | 0.00102 | 23 |  |  |  |
| C=CC(=O)N1CC[C@H](C(=O)NCC(=O)N2CCN(c3nc(-c4cnc(N)nc4C(F)F)nc(N4CCOCC4)n3)CC2)C1 [Compound 24, (S)-1-acryloyl-N-(2-(4-(4-(2-amino-4-(difluoromethyl)pyrimidin-5-yl)-6-morpholino-1,3,5-triazin-2-yl)piperazin-1-yl)-2-oxoethyl)pyrrolidine-3-carboxamide] | 0.00059 | 311000 | 8.34 | 0.0026 | 94 |  |  |  |
| C=CC(=O)N1CCC(CCCC(=O)N2CCN(c3nc(-c4cnc(N)nc4C(F)F)nc(N4CCOCC4)n3)CC2)CC1 [Compound 47, 4-(1-acryloylpiperidin-4-yl)-1-(4-(4-(2-amino-4-(difluoromethyl)pyrimidin-5-yl)-6-morpholino-1,3,5-triazin-2-yl)piperazin-1-yl)butan-1-one] | 0.000225 |  | 7.15 |  | 24 | 70300 | 0.000504 |  |
| C=CC(=O)N1CC(C(=O)NCCC(=O)N2CCN(c3nc(-c4cnc(N)nc4C(F)F)nc(N4CCOCC4)n3)CC2)C1 [Compound 35, 1-acryloyl-N-(3-(4-(4-(2-amino-4-(difluoromethyl)pyrimidin-5-yl)-6-morpholino-1,3,5-triazin-2-yl)piperazin-1-yl)-3-oxopropyl)azetidine-3-carboxamide] | 0.00662 | 126000 | 13.4 | 0.00169 | 609 |  |  |  |
| C=CC(=O)N1CCCC[C@H]1C(=O)N(C)CC(=O)N1CCN(c2nc(-c3cnc(N)nc3C(F)F)nc(N3CCOCC3)n2)CC1 [Compound 22, (S)-1-acryloyl-N-(2-(4-(4-(2-amino-4-(difluoromethyl)pyrimidin-5-yl)-6-morpholino-1,3,5-triazin-2-yl)piperazin-1-yl)-2-oxoethyl)-N-methylpiperidine-2-carboxamide] | 0.00094 | 54000 | 5.74 | 0.000309 | 29.3 |  |  |  |
| C=CC(=O)N1CCC(C(=O)NCC(=O)N2CCN(c3nc(-c4cnc(N)nc4C(F)F)nc(N4CCOCC4)n3)CC2)CC1 [Compound 44, 1-acryloyl-N-(2-(4-(4-(2-amino-4-(difluoromethyl)pyrimidin-5-yl)-6-morpholino-1,3,5-triazin-2-yl)piperazin-1-yl)-2-oxoethyl)piperidine-4-carboxamide] | 0.00037 |  |  |  | 82 |  |  |  |
| C=CC(=O)N1CC(C(=O)NCC(=O)N2CCN(c3nc(-c4cnc(N)nc4C(F)F)nc(N4CCOCC4)n3)CC2)C1 [Compound 32, 1-acryloyl-N-(2-(4-(4-(2-amino-4-(difluoromethyl)pyrimidin-5-yl)-6-morpholino-1,3,5-triazin-2-yl)piperazin-1-yl)-2-oxoethyl)azetidine-3-carboxamide] | 0.00517 |  |  |  | 175 |  |  |  |
| C=CC(=O)N1CC(C(=O)N(C)CCC(=O)N2CCN(c3nc(-c4cnc(N)nc4C(F)F)nc(N4CCOCC4)n3)CC2)C1 [Compound 37, 1-acryloyl-N-(3-(4-(4-(2-amino-4-(difluoromethyl)pyrimidin-5-yl)-6-morpholino-1,3,5-triazin-2-yl)piperazin-1-yl)-3-oxopropyl)-N-methylazetidine-3-carboxamide] | 0.00636 |  |  |  | 196 |  |  |  |
| C=CC(=O)N1CCC(C(=O)N(C)CC(=O)N2CCN(c3nc(-c4cnc(N)nc4C(F)F)nc(N4CCOCC4)n3)CC2)CC1 [Compound 45, 1-acryloyl-N-(2-(4-(4-(2-amino-4-(difluoromethyl)pyrimidin-5-yl)-6-morpholino-1,3,5-triazin-2-yl)piperazin-1-yl)-2-oxoethyl)-N-methylpiperidine-4-carboxamide] | 0.000354 |  |  |  | 86 |  |  |  |
